Results from patent publication US20100284985A1, “Composition” (Danisco A/S, priority 2007, published 2010).

How the values were obtained:
Format in all cases: cell-based
[1] = tested on: Listeria monocytogenes DCS 489; assay: FIC checkerboard assay, LAE with Nisaplin
Description: (§1) The Fractional Inhibition Concentration (FIC) assay is also a 96 well liquid based assay with a checkerboard titration layout (7, 8), one plate for each strain and sets of concentrations. Cultivation media can be seen in Appendix 1. O.D. at 620 nm is read at zero hours (at strain addition) and after a 24-hour incubation period. […] The FICs for the two substances are plotted towards each other in a graph called an isobologram. […] Additionally, the FIC index is then calculated as follows: FICindex=FICA+FICB, if FICindex is lower than 1 there is synergy, if it is higher than one there is antagony and if it is equal to one there is an additive effect.
(§2) FICs were determined for LAE in combination with Nisaplin and Natamax for strains in Table 1A and B.

[2] = tested on: Brochothrix thermosphacta DCS 780; assay: FIC checkerboard assay, LAE with Nisaplin
Description: as §1, §2

[3] = tested on: Bacillus licheniformis DCS 561; assay: FIC checkerboard assay, LAE with Nisaplin
Description: as §1, §2

Candida pulcherrima H117 = assay: MIC assay, LAE; details: ppm of the active component
Description: (§3) The Minimal Inhibition Concentration Assay (MIC) is a 96 well liquid based assay developed for a semi-automated assessment system and performed essentially as described in (7). […] From an overnight culture […] of each strain was inoculated in one well corresponding to an approximate inoculation density of 10^3-10^4 cells/well. Media used were CASO, MRS and YM (Appendix 1). Strains were incubated at 20° C., 25° C., 37° C. and under aerobic/anaerobic conditions depending on the preferred conditions for the particular strain (Appendix 1). At time zero, after adding the AM, the optical density (O.D.) of the bacterial culture is measured at 620 nm and then again after 24 hours. […] MIC is defined as the lowest concentration of the AM that will inhibit measurable growth. A bacteriostatic effect is defined as the OD620 at 24 h being less than or equal to 20% of the growth control.

[4] = tested on: Clostridium sporogenes DCS 541; assay: MIC assay, LAE
Description: as §3

[5] = tested on: Clostridium sporogenes DCS 808; assay: MIC assay, LAE
Description: as §3

[6] = tested on: Salmonella typhimurium DCS 223; assay: MIC assay, LAE; details: ppm of the active component
Description: as §3

[7] = tested on: Debaryomyces hansenii DCS 605; assay: MIC assay, LAE
Description: as §3

[8] = tested on: Lactobacillus fermentum DCS 573; assay: MIC assay, LAE
Description: as §3

Leuconostoc spp. DCS 947 = assay: MIC assay, LAE; details: ppm of the active component
Description: as §3

[9] = tested on: Clostridium algidicarnis DCS 563; assay: MIC assay, LAE
Description: as §3

Bacillus cereus DCS 500 = assay: MIC assay, LAE
Description: as §3

[10] = tested on: Listeria monocytogenes DCS 489; assay: MIC assay, LAE
Description: as §3

[11] = tested on: Klebsiella oxytoca DCS 567; assay: MIC assay, LAE
Description: as §3

[12] = tested on: Clostridium sporogenes (spores) DCS 812sp; assay: MIC assay, LAE; details: ppm of the active component
Description: as §3

[13] = tested on: Rhodotorula mucilaginosa H116; assay: MIC assay, LAE; details: ppm of the active component
Description: as §3

[14] = tested on: Lactobacilllus farciminis DCS 611; assay: MIC assay, LAE; details: ppm of the active component
Description: as §3

[15] = tested on: Candida tropicalis DCS 604; assay: MIC assay, LAE; details: Candida tropicalis, DCS604, ppm of the active component
Description: as §3

[16] = Clostridium sporogenes, DCS541, ppm of the active component
[17] = Clostridium sporogenes, DCS808, ppm of the active component
[18] = Salmonella enterica, TYPHIMURIUM
[19] = Debaryomyces hansenii, DCS605, ppm of the active component
[20] = Clostridium algidicarnis, DCS563, ppm of the active component
[21] = Bacillus cereus, DCS500, ppm of the active component
[22] = Listeria monocytogenes, DCS489, ppm of the active component
[23] = Klebsiella oxytoca, DCS567, ppm of the active component

SMILES: CCCCCCCCCCCC(=O)N[C@@H](CCCNC(=N)N)C(=O)OCC.Cl [LAE, N^α-Lauroyl-L-arginine ethyl ester monohydrochloride]
- FICLAE ([1]; Nisaplin 0 ppm + LAE 50 ppm): 1.00
- FICLAE ([1]; Nisaplin 50 ppm + LAE 22 ppm): 0.44
- FICLAE ([1]; Nisaplin 90 ppm + LAE 15 ppm): 0.30
- FICLAE ([1]; Nisaplin 130 ppm + LAE 5 ppm): 0.09
- FICLAE ([1]; Nisaplin 170 ppm + LAE 4 ppm): 0.04
- FICLAE ([1]; Nisaplin 210 ppm + LAE 1 ppm): 0.02
- FICLAE ([1]; Nisaplin 250 ppm + LAE 0 ppm): 0.00
- FICLAE ([2]; Nisaplin 50 ppm + LAE 33 ppm): 0.67
- FICLAE ([2]; Nisaplin 90 ppm + LAE 22 ppm): 0.44
- FICLAE ([2]; Nisaplin 210 ppm + LAE 0 ppm): 0.00
- FICLAE ([3]; Nisaplin 50 ppm + LAE 22.2 ppm): 0.44
- FICLAE ([3]; Nisaplin 130 ppm + LAE 14.8 ppm): 0.30
- FICLAE ([3]; Nisaplin 210 ppm + LAE 9.9 ppm): 0.20
- FICLAE ([3]; Nisaplin 250 ppm + LAE 0 ppm): 0.00
- MBC (Candida pulcherrima H117; Metschnikowia pulcherrima): 14.6 µg/mL
- MIC (Candida pulcherrima H117; Metschnikowia pulcherrima): 9.7 µg/mL
- increased lag phase (Candida pulcherrima H117): 6.5 ppm
- MBC [4, 16]: 9.7 µg/mL
- MIC [4, 16]: 9.7 µg/mL
- increased lag phase ([4]; ppm of the active component): 9.7 ppm
- MBC [5, 17]: 9.7 µg/mL
- MIC [5, 17]: 9.7 µg/mL
- increased lag phase ([5]; ppm of the active component): 9.7 ppm
- MBC [6, 18]: 32.8 µg/mL
- MIC [6, 18]: 21.9 µg/mL
- increased lag phase [6]: 14.6 ppm
- MBC [7, 19]: 4.3 µg/mL
- MIC [7, 19]: 4.3 µg/mL
- increased lag phase ([7]; ppm of the active component): 4.3 ppm
- MBC ([8]; DCS573, ppm of the active component): > 166 µg/mL
- MIC ([8]; Limosilactobacillus reuteri, DCS573, ppm of the active component): 73.8 µg/mL
- increased lag phase ([8]; ppm of the active component): 73.8 ppm
- MBC (Leuconostoc spp. DCS 947; Leuconostoc): > 166 µg/mL
- MIC (Leuconostoc spp. DCS 947; Leuconostoc): 32.8 µg/mL
- increased lag phase (Leuconostoc spp. DCS 947): 32.8 ppm
- MBC [9, 20]: 14.9 µg/mL
- MIC [9, 20]: 9.7 µg/mL
- increased lag phase ([9]; ppm of the active component): 6.5 ppm
- MBC (Bacillus cereus DCS 500; [21]): 14.6 µg/mL
- MIC (Bacillus cereus DCS 500; [21]): 12.1 µg/mL
- increased lag phase (Bacillus cereus DCS 500; ppm of the active component): 6.5 ppm
- MBC [10, 22]: 14.6 µg/mL
- MIC [10, 22]: 12.1 µg/mL
- increased lag phase ([10]; ppm of the active component): 9.7 ppm
- MBC [11, 23]: 41 µg/mL
- MIC [11, 23]: 32.8 µg/mL
- increased lag phase ([11]; ppm of the active component): 18.2 ppm
- MBC ([12]; Clostridium sporogenes): 8.1 µg/mL
- MIC ([12]; Clostridium sporogenes): 4.3 µg/mL
- increased lag phase [12]: 4.3 ppm
- MBC ([13]; Rhodotorula mucilaginosa): 6.5 µg/mL
- MIC ([13]; Rhodotorula mucilaginosa): 6.5 µg/mL
- increased lag phase [13]: 4.3 ppm
- MBC [14]: > 166 µg/mL
- MIC [14]: 49.2 µg/mL
- increased lag phase [14]: 49.2 ppm
- MBC [15]: 4.3 µg/mL
- MIC [15]: 4.3 µg/mL
